# Measurements taken from US5587479A, “Basic derivatives of glutamic acid and aspartic acid as gastrin or cholecystokinin antagonists” (priority 1992, dated 1996).
# Like-named read-outs stand apart in the source and are kept apart here.
# Legend:
# guinea-pig ureters = assay: Antispastic activity in vitro: spontaneous motility of guinea-pig ureters; conditions: for IC50: Cavia porcellus, five minutes contact, 37° C.
# Excerpt: The isotonic contractions were detected by means of a force transducer and recorded. […] A given concentration of the product under test was then introduced into the bath and left in contact with the prepared specimen for five minutes, after which the ureter was washed until its own spontaneous activity was re-established.
# mouse = assay: Anxiolytic activity in the mouse, Black and White Box test; assay type: in vivo; conditions: for TOTAL MOV.: five minutes; for anxiolytic activity in the Black and White Box test (in words): IP
# Protocol: In order to confirm the hypothesis that the potent activity of some of the compounds of the invention against central CCK-B may be correlated with a possible anxiolytic activity, this potential activity was evaluated in the mouse with the use of the "Black and White Box test". This experimental model, which was carried out according to Costall et al. [Pharm. Biochem. Behav. 32 (1989), 777-785] used a box with dimensions of 45×21×21 (h) cm. divided into two compartments which communicated with each other by means of a 13×5 cm hole. The smaller compartment (1/3 of the total area) had black walls, whereas the larger had transparent walls and was illuminated by a lamp which was placed 20 cm above the box and supplied light at 20 W. Under the floor was an activity meter which registered the movements performed by the animal in the individual compartments. The experiment was started by placing the animal in the centre of the illuminated box; as well at its movements, the time which the animal spent in the dark and in the light and the number of times it moved between the 2 compartments were recorded for five minutes. In general, a control animal tended preferably to stay in the dark compartment where it felt better protected from an unusual enviromental situation which put it in a state of anxiety. In this experimental model ( see the reference cited above), a compound having anxiolytic activity decreased the % of movements into the dark in comparison with the total movements, increased the movements between the two light-dark compartments, and increased the % of the total time time spent in the light. The results obtained are given in Table 5 below in which the activities obtained with the compound 1 (the rectus series ) and its enantiomer 2 (sinister) tested in comparison with diazepam and the CCK-B antagonist L365-260.
# [1] = force of the contractions, read-out: IC50 (force), inhibition of the spontaneous motility of guinea-pig ureters in vitro
# [2] = frequency of the contractions, read-out: IC50 (frequency), inhibition of the spontaneous motility of guinea-pig ureters in vitro
smiles,measurement,setting,value
CCCCN(CCCC)C(=O)C(CCC(=O)NCCN(C)C)NC(=O)c1ccc(C)c(C)c1 (centres unmarked) [Compound 25],IC50,guinea-pig ureters; [1],36 µg/mL
CCCCN(CCCC)C(=O)C(CCC(=O)NCCCN(C)C)NC(=O)c1ccc(C)c(C)c1 (centres unmarked) [Compound 27],IC50,guinea-pig ureters; [1],33 µg/mL
CCCCN(CCCC)C(=O)C(CCC(=O)NCCN1CCOCC1)NC(=O)c1ccc(C)c(C)c1 (centres unmarked) [Compound 28],IC50,guinea-pig ureters; [1],18 µg/mL
same,IC50,guinea-pig ureters; [2],43 µg/mL
CCCCN(CCCC)C(=O)C(CCC(=O)NCCCN1CCOCC1)NC(=O)c1ccc(C)c(C)c1 (centres unmarked) [Compound 29],IC50,guinea-pig ureters; [1],18 µg/mL
same,IC50,guinea-pig ureters; [2],17 µg/mL
CCCCN(CCCC)C(=O)C(CCC(=O)NCC1CCCN1CC)NC(=O)c1ccc(C)c(C)c1 (centres unmarked) [Compound 31],IC50,guinea-pig ureters; [1],23 µg/mL
CCCCCN(CCCCC)C(=O)C(CCC(=O)NCCN1CCOCC1)NC(=O)c1ccccc1 (centres unmarked) [Compound 32],IC50,guinea-pig ureters; [2],22 µg/mL
CCCCCN(CCCCC)C(=O)C(CCC(=O)NCCN1CCOCC1)NC(=O)c1ccc(C)cc1 (centres unmarked) [Compound 33],IC50,guinea-pig ureters; [1],18 µg/mL
same,IC50,guinea-pig ureters; [2],16 µg/mL
CCCCCN(CCCCC)C(=O)C(CCC(=O)NCCN1CCOCC1)NC(=O)c1ccc(C#N)cc1 (centres unmarked) [Compound 34],IC50,guinea-pig ureters; [1],12 µg/mL
same,IC50,guinea-pig ureters; [2],12 µg/mL
CCCCCN(CCCCC)C(=O)C(CCC(=O)NCCN1CCOCC1)NC(=O)c1ccc(OC)c(OC)c1 (centres unmarked) [Compound 35],IC50,guinea-pig ureters; [1],18 µg/mL
same,IC50,guinea-pig ureters; [2],16 µg/mL
CCCCCN(CCCCC)C(=O)C(CCC(=O)NCCN1CCOCC1)NC(=O)c1ccc(Cl)c(Cl)c1 (centres unmarked) [Compound 37],IC50,guinea-pig ureters; [1],8 µg/mL
same,IC50,guinea-pig ureters; [2],7 µg/mL
CCCCCN(CCCCC)C(=O)C(CCC(=O)NCCN(C)C)NC(=O)c1ccc(C)c(C)c1 (centres unmarked) [Compound 40],IC50,guinea-pig ureters; [1],27 µg/mL
same,IC50,guinea-pig ureters; [2],44 µg/mL
CCCCCN(CCCCC)C(=O)C(CCC(=O)NCCCN(C)C)NC(=O)c1ccc(C)c(C)c1 (centres unmarked) [Compound 41],IC50,guinea-pig ureters; [1],20 µg/mL
same,IC50,guinea-pig ureters; [2],28 µg/mL
CCCCCN(CCCCC)C(=O)C(CCC(=O)NCCN(CC)CC)NC(=O)c1ccc(C)c(C)c1 (centres unmarked) [Compound 42],IC50,guinea-pig ureters; [1],18 µg/mL
same,IC50,guinea-pig ureters; [2],22 µg/mL
CCCCCN(CCCCC)C(=O)[C@@H](CCC(=O)NCCN1CCOCC1)NC(=O)c1ccc(C)c(C)c1 [Compound 45],IC50,guinea-pig ureters; [1],8 µg/mL
same,IC50,guinea-pig ureters; [2],6 µg/mL
CCCCCN(CCCCC)C(=O)[C@H](CCC(=O)NCCN1CCOCC1)NC(=O)c1ccc(C)c(C)c1 [Compound 46],activity on guinea-pig ureters (in words),guinea-pig ureters,extremely active
same,IC50,guinea-pig ureters; [1],1.6 µg/mL
same,IC50,guinea-pig ureters; [2],1.5 µg/mL
same,activity relative to Verapamil,guinea-pig ureters; guinea-pig ureters,about twice
same,times more active than Papaverine and Flavexate,guinea-pig ureters; guinea-pig ureters,about 20 times
"Cc1cccc(NC(=O)N[C@@H]2N=C(c3ccccc3)c3ccccc3N(C)C2=O)c1 [Compound L-365-260, reference compound]",LIGHT TIME (%) TOTAL TIME,mouse; 0.01 mg/kg IP,27.0%
same,LIGHT TIME (%) TOTAL TIME: % EFF.VS CONTROL,mouse; 0.01 mg/kg IP,0%
same,LIGHT-DARK MOVEMENTS,mouse; 0.01 mg/kg IP,14.2
same,LIGHT-DARK MOVEMENTS: % EFF. VS CONTROL,mouse; 0.01 mg/kg IP,-12%
same,MOV. DARK (%) TOTAL MOV.,mouse; 0.01 mg/kg IP,57%
same,MOV. DARK (%) TOTAL MOV.: % EFF. VS CONTROL,mouse; 0.01 mg/kg IP,12%
same,TOTAL MOV.,mouse; 0.01 mg/kg IP,417
same,LIGHT TIME (%) TOTAL TIME,mouse; 0.1 mg/kg IP,31.8%
same,LIGHT TIME (%) TOTAL TIME: % EFF.VS CONTROL,mouse; 0.1 mg/kg IP,18%
same,LIGHT-DARK MOVEMENTS,mouse; 0.1 mg/kg IP,13.3
same,LIGHT-DARK MOVEMENTS: % EFF. VS CONTROL,mouse; 0.1 mg/kg IP,-18%
same,MOV. DARK (%) TOTAL MOV.,mouse; 0.1 mg/kg IP,54%
same,MOV. DARK (%) TOTAL MOV.: % EFF. VS CONTROL,mouse; 0.1 mg/kg IP,18%
same,TOTAL MOV.,mouse; 0.1 mg/kg IP,446
same,anxiolytic activity in the Black and White Box test (in words),mouse,active at a dose of 0.1 mg/kg but only for the parameter which relates to the increase in the time spent in the light
"CN1C(=O)CN=C(c2ccccc2)c2cc(Cl)ccc21 [DIAZEPAM, diazepam, reference compound]",LIGHT TIME (%) TOTAL TIME,mouse; 1 mg/kg IP,29.3%
same,LIGHT TIME (%) TOTAL TIME: % EFF.VS CONTROL,mouse; 1 mg/kg IP,19%
same,LIGHT-DARK MOVEMENTS,mouse; 1 mg/kg IP,19.9
same,LIGHT-DARK MOVEMENTS: % EFF. VS CONTROL,mouse; 1 mg/kg IP,+37.2%
same,MOV. DARK (%) TOTAL MOV.,mouse; 1 mg/kg IP,53%
same,MOV. DARK (%) TOTAL MOV.: % EFF. VS CONTROL,mouse; 1 mg/kg IP,-5%
same,TOTAL MOV.,mouse; 1 mg/kg IP,508
same,LIGHT TIME (%) TOTAL TIME,mouse; 3 mg/kg IP,33.6%
same,LIGHT TIME (%) TOTAL TIME: % EFF.VS CONTROL,mouse; 3 mg/kg IP,36.7%
same,LIGHT-DARK MOVEMENTS,mouse; 3 mg/kg IP,22.3
same,LIGHT-DARK MOVEMENTS: % EFF. VS CONTROL,mouse; 3 mg/kg IP,+53.8%
same,MOV. DARK (%) TOTAL MOV.,mouse; 3 mg/kg IP,52%
same,MOV. DARK (%) TOTAL MOV.: % EFF. VS CONTROL,mouse; 3 mg/kg IP,-7%
same,TOTAL MOV.,mouse; 3 mg/kg IP,539
same,anxiolytic activity in the Black and White Box test (in words),mouse,active in a dose-dependent manner for all the parameters tested
